Results from patent US10245261B2, “Substituted indol-5-ol derivatives and their therapeutic applications” (NantBioScience, Inc., priority 2013, dated 2019).

Experiments:
Assay in all cases: KinaseProfiler kinase assay
EphB4(h) = EphB4(h) (Homo sapiens, UniProt P54760); assay type: biochemical
Outline: (§1)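 Compounds were serially diluted from DMSO into 20 mM MOPS buffer with EDTA, Brij-35, glycerol, β-mercaptoethanol and 1 mg/mL BSA. Reactions started with MgATP/[γ-33P]ATP, ran 40 min at room temperature, and phosphorylation was measured by scintillation counting after filtermat capture.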

LKB1(h) = LKB1(h) (Homo sapiens, UniProt Q15831); assay type: biochemical
Outline: as §1

TrkA(h) = TrkA(h) (Homo sapiens, UniProt P04629); assay type: biochemical
Outline: as §1

CK2α2(h) = CK2α2(h) (Homo sapiens, UniProt P19784); assay type: biochemical
Outline: as §1

MAPKAP-K3(h) = MAPKAP-K3(h) (Homo sapiens, UniProt Q16644); assay type: biochemical
Outline: as §1

PKBβ(h) = PKBβ(h) (Homo sapiens, UniProt P31751); assay type: biochemical
Outline: as §1

FGFR1(V561M)(h) = FGFR1(V561M)(h) (Homo sapiens, UniProt P11362, V561M); assay type: biochemical
Outline: as §1

PKG1β(h) = PKG1β(h) (Homo sapiens, UniProt Q13976); assay type: biochemical
Outline: as §1

IR(h), activated = IR(h), activated (Homo sapiens, UniProt P06213); assay type: biochemical
PIP5K1γ(h) = PIP5K1γ(h) (Homo sapiens, UniProt O60331); assay type: biochemical
[1] = target: PI3 Kinase (p110α(H1047R)/p85α)(h) (Homo sapiens, UniProt P42336, H1047R); assay type: biochemical
BRK(h) = BRK(h) (Homo sapiens, UniProt Q13882); assay type: biochemical
mTOR(h) = mTOR(h) (Homo sapiens, UniProt P42345); assay type: biochemical
Lck(h) = Lck(h) (Homo sapiens, UniProt P06239); assay type: biochemical
PI3 Kinase (p120γ)(h) = PI3 Kinase (p120γ)(h) (Homo sapiens, UniProt P48736); assay type: biochemical
CLK2(h) = CLK2(h) (Homo sapiens, UniProt P49760); assay type: biochemical
CK1(y) = assay type: biochemical, yeast
PI3KC2α(h) = PI3KC2α(h) (Homo sapiens, UniProt O00443); assay type: biochemical
CDK5/p25(h) = CDK5/p25(h) (Homo sapiens, UniProt Q00535); assay type: biochemical

BRK(h), sequence (Q13882 whole entry): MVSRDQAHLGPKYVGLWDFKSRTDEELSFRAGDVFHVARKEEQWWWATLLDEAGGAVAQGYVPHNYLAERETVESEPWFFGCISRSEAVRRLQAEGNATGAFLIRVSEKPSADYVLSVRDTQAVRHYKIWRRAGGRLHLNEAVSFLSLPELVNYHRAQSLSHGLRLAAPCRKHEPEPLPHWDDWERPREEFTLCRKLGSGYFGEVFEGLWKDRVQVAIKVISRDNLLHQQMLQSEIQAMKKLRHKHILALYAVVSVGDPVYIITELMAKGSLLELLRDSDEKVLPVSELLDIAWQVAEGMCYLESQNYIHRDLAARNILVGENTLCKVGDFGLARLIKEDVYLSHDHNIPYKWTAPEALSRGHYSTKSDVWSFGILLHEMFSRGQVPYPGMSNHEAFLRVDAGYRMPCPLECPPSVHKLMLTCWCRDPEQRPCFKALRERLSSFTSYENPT
Lck(h), sequence (P06239 whole entry): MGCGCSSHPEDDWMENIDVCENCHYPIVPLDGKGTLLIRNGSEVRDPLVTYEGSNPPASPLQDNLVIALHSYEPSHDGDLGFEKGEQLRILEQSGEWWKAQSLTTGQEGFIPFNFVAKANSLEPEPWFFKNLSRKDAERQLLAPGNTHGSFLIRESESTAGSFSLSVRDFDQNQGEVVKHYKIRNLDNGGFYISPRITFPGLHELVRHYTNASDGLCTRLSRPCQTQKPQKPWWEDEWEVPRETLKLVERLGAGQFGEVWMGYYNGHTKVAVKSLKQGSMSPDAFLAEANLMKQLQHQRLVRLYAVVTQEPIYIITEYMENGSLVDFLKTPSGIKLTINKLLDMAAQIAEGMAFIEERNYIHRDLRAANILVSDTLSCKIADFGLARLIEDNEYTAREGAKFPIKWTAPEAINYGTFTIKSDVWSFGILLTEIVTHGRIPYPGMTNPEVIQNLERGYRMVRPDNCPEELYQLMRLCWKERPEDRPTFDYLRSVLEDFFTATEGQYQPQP
IR(h), activated, sequence (P06213 1005-1310): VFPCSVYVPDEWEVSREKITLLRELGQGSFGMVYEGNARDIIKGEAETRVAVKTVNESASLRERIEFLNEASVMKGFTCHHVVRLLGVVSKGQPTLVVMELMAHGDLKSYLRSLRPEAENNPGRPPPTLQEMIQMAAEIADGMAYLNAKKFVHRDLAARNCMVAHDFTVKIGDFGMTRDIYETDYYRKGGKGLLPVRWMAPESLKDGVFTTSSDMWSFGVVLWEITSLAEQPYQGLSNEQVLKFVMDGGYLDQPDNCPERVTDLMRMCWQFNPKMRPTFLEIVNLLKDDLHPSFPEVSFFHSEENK
CLK2(h), sequence (P49760 whole entry): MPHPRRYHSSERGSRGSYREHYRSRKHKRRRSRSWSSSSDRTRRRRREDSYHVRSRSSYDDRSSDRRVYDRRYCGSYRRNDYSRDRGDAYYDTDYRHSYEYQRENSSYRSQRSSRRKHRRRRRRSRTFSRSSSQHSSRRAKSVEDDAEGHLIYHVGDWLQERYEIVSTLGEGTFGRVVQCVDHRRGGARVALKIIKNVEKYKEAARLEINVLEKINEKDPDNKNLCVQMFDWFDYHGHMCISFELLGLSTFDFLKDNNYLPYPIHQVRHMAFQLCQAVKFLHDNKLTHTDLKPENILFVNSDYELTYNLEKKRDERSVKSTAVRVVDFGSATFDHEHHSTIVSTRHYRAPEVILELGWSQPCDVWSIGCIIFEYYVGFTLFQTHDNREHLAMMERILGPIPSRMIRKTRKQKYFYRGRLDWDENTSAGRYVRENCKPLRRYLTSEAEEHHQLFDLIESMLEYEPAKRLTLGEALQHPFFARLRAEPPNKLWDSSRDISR
EphB4(h), sequence (P54760 16-987): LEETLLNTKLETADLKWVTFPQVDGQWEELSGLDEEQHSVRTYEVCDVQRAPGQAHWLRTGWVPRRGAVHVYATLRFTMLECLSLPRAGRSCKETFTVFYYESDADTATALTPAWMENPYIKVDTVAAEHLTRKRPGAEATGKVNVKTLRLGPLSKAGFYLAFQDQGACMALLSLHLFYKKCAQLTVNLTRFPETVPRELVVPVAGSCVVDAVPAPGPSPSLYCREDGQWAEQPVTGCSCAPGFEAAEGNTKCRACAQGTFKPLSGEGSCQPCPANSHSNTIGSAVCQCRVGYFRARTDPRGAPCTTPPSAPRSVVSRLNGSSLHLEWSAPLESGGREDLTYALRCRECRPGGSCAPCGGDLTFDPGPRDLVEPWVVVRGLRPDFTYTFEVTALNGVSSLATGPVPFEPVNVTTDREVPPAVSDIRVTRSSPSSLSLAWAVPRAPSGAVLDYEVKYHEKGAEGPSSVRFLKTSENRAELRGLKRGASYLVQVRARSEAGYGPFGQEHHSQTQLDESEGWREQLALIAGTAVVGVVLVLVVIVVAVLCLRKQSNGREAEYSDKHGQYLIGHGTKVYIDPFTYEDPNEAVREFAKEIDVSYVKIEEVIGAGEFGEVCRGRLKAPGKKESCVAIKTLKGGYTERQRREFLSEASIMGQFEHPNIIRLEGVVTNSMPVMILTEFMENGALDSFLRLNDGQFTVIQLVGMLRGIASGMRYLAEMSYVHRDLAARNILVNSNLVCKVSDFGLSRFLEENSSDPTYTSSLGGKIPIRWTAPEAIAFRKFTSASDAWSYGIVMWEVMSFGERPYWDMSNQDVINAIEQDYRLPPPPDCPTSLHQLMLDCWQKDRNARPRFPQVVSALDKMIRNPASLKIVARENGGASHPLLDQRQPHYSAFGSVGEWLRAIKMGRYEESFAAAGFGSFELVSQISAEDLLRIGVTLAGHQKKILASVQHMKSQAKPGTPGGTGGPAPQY
PI3KC2α(h), sequence (O00443 whole entry): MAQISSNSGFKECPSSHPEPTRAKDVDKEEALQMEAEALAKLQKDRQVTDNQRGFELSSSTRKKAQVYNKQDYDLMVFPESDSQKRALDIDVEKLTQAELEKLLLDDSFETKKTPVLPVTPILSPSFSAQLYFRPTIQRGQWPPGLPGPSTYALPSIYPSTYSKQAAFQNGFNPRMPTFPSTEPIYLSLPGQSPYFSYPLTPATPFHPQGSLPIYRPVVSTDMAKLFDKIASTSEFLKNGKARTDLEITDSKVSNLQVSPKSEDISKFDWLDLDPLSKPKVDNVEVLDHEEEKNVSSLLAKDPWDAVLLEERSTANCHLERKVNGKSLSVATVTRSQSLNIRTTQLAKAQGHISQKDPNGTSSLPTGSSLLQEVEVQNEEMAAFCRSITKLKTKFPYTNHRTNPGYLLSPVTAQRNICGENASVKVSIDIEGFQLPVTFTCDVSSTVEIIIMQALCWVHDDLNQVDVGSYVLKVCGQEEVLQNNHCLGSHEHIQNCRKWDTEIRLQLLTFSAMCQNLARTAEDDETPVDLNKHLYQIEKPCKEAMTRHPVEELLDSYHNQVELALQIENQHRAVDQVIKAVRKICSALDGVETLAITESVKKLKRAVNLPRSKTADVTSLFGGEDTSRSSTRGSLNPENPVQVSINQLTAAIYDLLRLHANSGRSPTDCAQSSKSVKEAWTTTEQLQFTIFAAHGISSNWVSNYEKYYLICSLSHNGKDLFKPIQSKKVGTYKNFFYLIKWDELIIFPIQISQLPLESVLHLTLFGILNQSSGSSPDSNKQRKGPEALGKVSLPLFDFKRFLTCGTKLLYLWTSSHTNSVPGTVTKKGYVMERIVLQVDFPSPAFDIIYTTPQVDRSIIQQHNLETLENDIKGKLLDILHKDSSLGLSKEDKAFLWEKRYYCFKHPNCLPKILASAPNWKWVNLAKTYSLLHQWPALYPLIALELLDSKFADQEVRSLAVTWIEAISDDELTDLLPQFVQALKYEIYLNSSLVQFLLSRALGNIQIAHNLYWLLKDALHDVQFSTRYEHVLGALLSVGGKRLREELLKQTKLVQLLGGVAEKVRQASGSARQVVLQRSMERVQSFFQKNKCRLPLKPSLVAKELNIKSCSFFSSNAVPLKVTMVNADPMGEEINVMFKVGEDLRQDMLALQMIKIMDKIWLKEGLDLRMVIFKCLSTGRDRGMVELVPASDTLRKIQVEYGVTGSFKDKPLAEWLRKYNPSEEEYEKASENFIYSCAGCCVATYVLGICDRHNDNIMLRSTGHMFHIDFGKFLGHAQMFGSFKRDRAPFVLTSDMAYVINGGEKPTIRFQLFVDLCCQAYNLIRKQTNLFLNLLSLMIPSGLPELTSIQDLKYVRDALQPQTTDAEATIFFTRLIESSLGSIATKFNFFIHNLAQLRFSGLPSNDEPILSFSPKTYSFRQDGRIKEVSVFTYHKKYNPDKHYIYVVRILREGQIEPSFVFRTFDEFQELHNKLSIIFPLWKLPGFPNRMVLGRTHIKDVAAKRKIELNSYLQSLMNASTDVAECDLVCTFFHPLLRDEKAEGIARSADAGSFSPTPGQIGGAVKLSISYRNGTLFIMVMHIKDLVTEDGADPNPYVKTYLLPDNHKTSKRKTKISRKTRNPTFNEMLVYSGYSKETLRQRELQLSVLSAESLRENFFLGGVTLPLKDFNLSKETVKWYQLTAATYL
CK2α2(h), sequence (P19784 whole entry): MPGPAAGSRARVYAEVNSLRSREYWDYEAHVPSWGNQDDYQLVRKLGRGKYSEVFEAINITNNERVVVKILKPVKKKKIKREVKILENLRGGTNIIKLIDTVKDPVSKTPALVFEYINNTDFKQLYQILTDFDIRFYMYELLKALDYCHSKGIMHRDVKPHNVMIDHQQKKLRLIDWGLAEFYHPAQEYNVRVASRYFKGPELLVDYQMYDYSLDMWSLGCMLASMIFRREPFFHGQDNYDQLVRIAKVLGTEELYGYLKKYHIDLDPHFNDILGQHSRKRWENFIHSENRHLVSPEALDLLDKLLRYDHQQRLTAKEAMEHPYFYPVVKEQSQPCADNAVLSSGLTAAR

SMILES | inhibition at 0.1 µM (EphB4(h)) [%] | inhibition at 0.1 µM (LKB1(h)) [%] | inhibition at 0.1 µM (TrkA(h)) [%] | inhibition at 0.1 µM (CK2α2(h)) [%] | inhibition at 0.1 µM (MAPKAP-K3(h)) [%] | inhibition at 0.1 µM (PKBβ(h)) [%] | inhibition at 0.1 µM (FGFR1(V561M)(h)) [%] | inhibition at 0.1 µM (PKG1β(h)) [%] | inhibition at 0.1 µM (IR(h), activated) [%] | inhibition at 0.1 µM (PIP5K1γ(h)) [%] | inhibition at 0.1 µM [1] [%] | inhibition at 0.1 µM (BRK(h)) [%] | inhibition at 0.1 µM (mTOR(h)) [%] | inhibition at 0.1 µM (Lck(h)) [%] | inhibition at 0.1 µM (PI3 Kinase (p120γ)(h)) [%] | inhibition at 0.1 µM (CLK2(h)) [%] | % inhibition @ 0.1 μM (CK1(y)) [%] | inhibition at 0.1 µM (PI3KC2α(h)) [%] | inhibition at 0.1 µM (CDK5/p25(h)) [%]
Cc1cc2c(F)c(Oc3nc(Nc4cc(C5CC5)[nH]n4)cc(N4CCN(C)CC4)n3)ccc2[nH]1 [Compound 10] | 85 | 14 | 102 | -13 | 4 | -35 | 101 | -11 | 73 | -8 | -8 | 54 | 25 | 99 | -2 | 29 | 17 | 15 | 24
Cc1cc2c(F)c(Oc3nc(Nc4cc(C5CC5)[nH]n4)cc(N4CCNCC4)n3)ccc2[nH]1 [Compound 11, N-(5-cyclopropyl-1H-pyrazol-3-yl)-2-((4-fluoro-2-methyl-1H-indol-5-yl)oxy)-6-(piperazin-1-yl)pyrimidin-4-amine] | 85 | -1 | 100 | 8 | -15 | -9 | 101 | -2 | 71 | -5 | -1 | 73 | 18 | 98 | -1 | -3 | 4 | -5 | 26
